Residue numbers refer to the chain shown, from its start. Entries after “also recorded” stand apart in the source; their conditions may differ.
How the values were obtained:
ARH3^D314A = biological target: T1, ARH3^D314A (Homo sapiens, UniProt Q9NX46, D314A); assay: Isothermal titration calorimetry (ITC) of ADPR binding to ARH3^D314A
T1 construct: His6 with PreScission protease cleavage site (N); made in house
T1 sequence (Q9NX46 1-363 D314A): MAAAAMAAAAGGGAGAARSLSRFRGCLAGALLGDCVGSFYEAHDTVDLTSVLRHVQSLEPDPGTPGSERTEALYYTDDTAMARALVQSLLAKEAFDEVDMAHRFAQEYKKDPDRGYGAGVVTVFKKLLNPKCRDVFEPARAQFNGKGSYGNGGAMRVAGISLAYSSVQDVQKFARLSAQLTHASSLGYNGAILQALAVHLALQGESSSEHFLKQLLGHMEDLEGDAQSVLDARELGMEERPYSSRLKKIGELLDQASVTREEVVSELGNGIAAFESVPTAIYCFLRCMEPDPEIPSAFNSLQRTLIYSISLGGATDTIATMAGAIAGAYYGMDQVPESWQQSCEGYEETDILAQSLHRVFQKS
Method: (§1) ITC experiments were performed at 25 °C in a buffer containing 150 mM NaCl, 100 mM Tris at pH 7.5, and 5 mM divalent metals (MgCl2, MnCl2, and CaCl2) or EDTA (Sigma–Aldrich). The WT or mutants of ARH3 were placed in a cell at 50 μM concentration, and ADPR was placed in the injection syringe at 660 μM concentration. Overall, 26 injections (10 μl per injection except for the first sample [5 μl]) were administered with an interval of 5 min between peaks to allow the baseline to be stabilized. […] The obtained plots were fitted with a single-site binding model in the Origin software package (MicroCal, Inc).

ARH3^D77A = biological target: T2, ARH3^D77A (Homo sapiens, UniProt Q9NX46, D77A); assay: Isothermal titration calorimetry (ITC) of ADPR binding to ARH3^D77A
T2 construct: His6 with PreScission protease cleavage site (N); made in house
T2 sequence (Q9NX46 1-363 D77A): T1 sequence (Q9NX46 1-363 D314A) with D77A, A314D
Method: as §1

ARH3^WT = biological target: T3, ARH3^WT (Homo sapiens, UniProt Q9NX46); assay: Isothermal titration calorimetry (ITC) of ADPR binding to ARH3^WT; conditions: for Kd / N (sites) / ΔG / ΔH / −TΔS: 25 °C, pH 7.5
T3 construct: we determined the structure of full-length ARH3 in complex with ADPR and Ca^2+; made in house
T3 sequence (Q9NX46 1-363): T1 sequence (Q9NX46 1-363 D314A) with A314D
Method: as §1

ARH3 = biological target: T4, ARH3 (Homo sapiens, UniProt Q9NX46); assay: Gel-based PAR turnover assay (PARylated PARP1C substrate); format: biochemical; conditions: for effect on PAR hydrolysis by ARH3: WT ARH3 2 μM, 5 mM EDTA or Ca^2+, PARylated PARP1C, 1 h, 37 °C
T4 construct: we determined the structure of full-length ARH3 in complex with ADPR and Ca^2+; made in house
T4 sequence (Q9NX46 1-363): T1 sequence (Q9NX46 1-363 D314A) with A314D
Method: A gel-based PAR-turnover assay was performed to evaluate the enzymatic activity of ARH3^WT, ARH3^D77A, ARH3^D78A, ARH3^D314A, and ARH3^D316A, as described previously ([14], [40]). Briefly, 2 μM of the catalytic domain of human PARP1 (PARP1C; residues 375–1014) was auto-PARylated at 37 °C for 30 min in the presence of 2 μM DBD of PARP1 (residues 1–374), 2 μM double-stranded DNA, and 400 μM β-NAD^+ (Sigma) in a buffer containing 100 mM NaCl, 50 mM Tris (pH 7.5), 10 mM MgCl2, and 2 mM DTT. ARH3 proteins (in the presence of 5 mM EDTA, Mg^2+, or Ca^2+) with final concentrations of 2 μM were mixed with the PARylated PARP1C substrate, followed by incubation for 1 h in 37 °C. Reactions then were stopped by adding 4× SDS-loading dye (Bio-Rad) and visualized by Coomassie blue staining of SDS-polyacrylamide gels.

[1] = ARH3^D314A, 5 mM Mg^2+, 25 °C, pH 7.5
[2] = ARH3^D77A, 5 mM Mg^2+, 25 °C, pH 7.5

Nc1ncnc2c1ncn2[C@@H]1O[C@H](COP(=O)(O)OP(=O)(O)OC[C@H]2OC(O)[C@H](O)[C@@H]2O)[C@@H](O)[C@H]1O (stereo partly shown) [ADPR, ADP-ribose]
decrease in ADPR-binding affinity compared with ARH3^WT (ARH3^D314A; ARH3^D314A versus ARH3^WT, Mg^2+): 44 fold
Kd (ARH3^D314A; [1]): 62.9 ± 2.9 µM
N (sites) (ARH3^D314A; [1]): 0.96 ± 0.04 sites
ΔG (ARH3^D314A; [1]): -5.74 kcal/M
ΔH (ARH3^D314A; [1]): -10.36 kcal/M
−TΔS (ARH3^D314A; [1]): 4.61 kcal/M
increase in ADPR-binding affinity compared with ARH3^WT (ARH3^D77A; ARH3^D77A versus ARH3^WT, Mg^2+): 23 fold
Kd (ARH3^D77A; [2]): 0.06 ± 0.01 µM
N (sites) (ARH3^D77A; [2]): 1.18 ± 0.01 sites
ΔG (ARH3^D77A; [2]): -9.87 kcal/M
ΔH (ARH3^D77A; [2]): -8.50 kcal/M
−TΔS (ARH3^D77A; [2]): -1.37 kcal/M
Kd (ARH3^WT; 5 mM Ca^2+): 7.81 ± 0.51 µM
N (sites) (ARH3^WT; 5 mM Ca^2+): 1.18 ± 0.01 sites
ΔG (ARH3^WT; 5 mM Ca^2+): -6.96 kcal/M
ΔH (ARH3^WT; 5 mM Ca^2+): -5.71 kcal/M
−TΔS (ARH3^WT; 5 mM Ca^2+): -1.25 kcal/M
Kd (ARH3^WT; 5 mM EDTA (metal-free)): 80.7 ± 5.25 µM
N (sites) (ARH3^WT; 5 mM EDTA): 0.96 ± 0.08 sites
ΔG (ARH3^WT; 5 mM EDTA): -5.59 kcal/M
ΔH (ARH3^WT; 5 mM EDTA): -5.164 kcal/M
−TΔS (ARH3^WT; 5 mM EDTA): -0.42 kcal/M
Kd (ARH3^WT; 5 mM Mg^2+): 1.42 ± 0.07 µM
N (sites) (ARH3^WT; 5 mM Mg^2+): 1.12 ± 0.01 sites
ΔG (ARH3^WT; 5 mM Mg^2+): -7.98 kcal/M
ΔH (ARH3^WT; 5 mM Mg^2+): -9.29 kcal/M
−TΔS (ARH3^WT; 5 mM Mg^2+): 1.31 kcal/M
Kd (ARH3^WT; 5 mM Mn^2+): 0.83 ± 0.05 µM
N (sites) (ARH3^WT; 5 mM Mn^2+): 1.09 ± 0.01 sites
ΔG (ARH3^WT; 5 mM Mn^2+): -8.29 kcal/M
ΔH (ARH3^WT; 5 mM Mn^2+): -10.57 kcal/M
−TΔS (ARH3^WT; 5 mM Mn^2+): 2.28 kcal/M
reduction in ADPR-binding affinity with Ca^2+ compared with Mg^2+ (ARH3^WT; KD^Ca versus KD^Mg): about a sixfold reduction
increase in binding affinity with Mg^2+ versus metal-free enzyme (EDTA) (ARH3^WT; KD^Mg versus KD^EDTA): approximately 60 fold

[Ca+2].[Cl-].[Cl-] [Ca^2+, CaCl2]
effect on PAR hydrolysis by ARH3 (ARH3): inhibit; also recorded: effectively suppresses PAR hydrolysis
Ca2+-dependent inhibition of ARH3 PAR hydrolysis activity (ARH3; in the presence of Mg2+ and increasing concentrations of Ca2+, 5 mM Ca2+): sufficient to effectively inhibit ARH3 activity

O=C(O)CN(CCN(CC(=O)O)CC(=O)O)CC(=O)O [EDTA]
effect on PAR hydrolysis by ARH3 (ARH3): inhibit; also recorded: effectively suppresses PAR hydrolysis

Source: paper PMC8141533, “Structural and biochemical analysis of human ADP-ribosyl-acceptor hydrolase 3 reveals the basis of metal selectivity and different roles for the two magnesium ions” (The Journal of Biological Chemistry, 2021)
